From patent US20210196678A1, “SELECTIVE ANDROGEN RECEPTOR DEGRADER (SARD) LIGANDS AND METHODS OF USE THEREOF” (University of Tennessee Research Foundation, priority 2018, published 2021)
Several values for one entry are separate records, joined by “and”; a condition that tells them apart may be missing. Equal entries are not always repeated. Entries after “also recorded” stand apart in the source; their conditions may differ.

Legend:
[1] = SARD compound serum concentrations in Hershberger rats (LC-MS/MS); settings: for Conc of 1065: serum of individual rats, 24-30 hours after the last dose, standards in nM
[2] = HLM metabolism (half-life); type: in vitro ADME, human; settings: for HLM Metabolism (H.L. min): human liver microsomes half-life
Method: (§1) Table 4 reports the in vitro efficacy (transactivation/degradation) and metabolism (rat liver microsomes (RLM) and human LM (HLM) half-lives) data, in vivo efficacy (S.V. and prostate % diff in rats) and serum concentration in rats for all the compounds in the 20 mg/kg Hershberger experiment. […].

[3] = RLM metabolism (half-life); type: in vitro ADME; settings: rat liver microsomes half-life
Method: as §1

[4] = test system: Intact Sprague Dawley rats; assay: Hershberger assay, seminal vesicles and prostate weights; type: in vivo, rat
Method: Dosing solutions were prepared in 20% DMSO+80% PEG. Fourteen days after the initiation of treatment, animals were sacrificed and tissue weights were recorded. Body weights were measured on day 1 and at the time of sacrifice. Tissue weights were normalized to body weight and represented as percent change from vehicle-treated animals.

[5] = test system: full length AR; assay: LNCaP or AD1 degradation (full length AR, Western blot); type: cell-based
Method: The numbers under each lane represents the % change from vehicle. The bands were quantified using ImageJ® software. For each lane, the AR band was divided by GAPDH band and the % difference from vehicle was calculated and represented under each lane. The numbers shown are 0 (no degradation) or represented as decreases in AR levels normalized for GAPDH levels (some values represented as positive but still indicate degradation).
Method: LNCaP or AD1 cells expressing full length AR were plated at 750,000-1,000,000 cells/well of a 6 well plate in growth medium (RPMI+10% FBS). Twenty four hours after plating, medium was changed to RPMI+1% csFBS without phenol red and maintained in this medium for 2 days. […] Protein was extracted using salt-containing lysis buffer with three freeze-thaw cycles. Protein concentration was estimated and five microgram of total protein was loaded on a SDS-PAGE, fractionated, and transferred to a PVDF membrane. […]
The numbers under each lane represents the % change from vehicle. The bands were quantified using ImageJ software. For each lane, the AR band was divided by GAPDH band and the % difference from vehicle was calculated and represented under each lane The numbers shown are 0 (no degradation) or represented as decreases in AR levels normalized for GAPDH levels (some values represented as positive but still indicate degradation).

[6] = biological target: AR wildtype (wt) (Homo sapiens, UniProt P10275); assay: Transactivation assay with wt AR (GRE-LUC luciferase); type: cell-based
Chain of AR wildtype (wt) (P10275 whole entry, the tested form may be a part): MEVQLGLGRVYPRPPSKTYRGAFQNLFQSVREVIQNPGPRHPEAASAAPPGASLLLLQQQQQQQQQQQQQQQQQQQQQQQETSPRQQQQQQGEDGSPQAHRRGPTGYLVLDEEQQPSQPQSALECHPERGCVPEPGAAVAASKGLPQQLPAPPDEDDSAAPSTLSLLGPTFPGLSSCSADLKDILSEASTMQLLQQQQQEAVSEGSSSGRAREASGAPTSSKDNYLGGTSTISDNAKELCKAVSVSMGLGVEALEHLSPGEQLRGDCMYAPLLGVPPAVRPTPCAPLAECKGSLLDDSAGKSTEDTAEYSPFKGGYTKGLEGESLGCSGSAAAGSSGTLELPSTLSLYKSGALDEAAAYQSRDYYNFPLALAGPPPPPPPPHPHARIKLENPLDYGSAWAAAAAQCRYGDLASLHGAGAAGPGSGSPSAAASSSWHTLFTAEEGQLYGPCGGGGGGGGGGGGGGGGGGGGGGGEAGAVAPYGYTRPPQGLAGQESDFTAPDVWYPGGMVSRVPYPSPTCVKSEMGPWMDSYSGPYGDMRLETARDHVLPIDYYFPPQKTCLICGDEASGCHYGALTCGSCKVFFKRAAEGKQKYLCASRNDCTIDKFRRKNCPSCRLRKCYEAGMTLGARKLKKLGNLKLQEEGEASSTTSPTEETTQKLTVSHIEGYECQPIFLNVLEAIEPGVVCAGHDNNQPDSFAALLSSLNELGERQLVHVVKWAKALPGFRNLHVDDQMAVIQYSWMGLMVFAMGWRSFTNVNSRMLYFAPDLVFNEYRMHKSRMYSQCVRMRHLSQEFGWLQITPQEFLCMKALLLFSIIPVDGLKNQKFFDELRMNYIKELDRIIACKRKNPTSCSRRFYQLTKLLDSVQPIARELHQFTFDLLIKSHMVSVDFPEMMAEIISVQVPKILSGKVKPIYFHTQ
Method: COS7 cells were transfected with 0.25 μg GRE-LUC, 0.01 g CMV-renilla LUC, and 25 ng CMV-hAR using Lipofectamine in OptiMEM® medium. […] Firefly luciferase values were normalized to renilla luciferase values.
Firefly luciferase values were normalized to renilla luciferase values.
Human AR cloned into CMV vector backbone was used for the transactivation study. HEK-293 cells were plated at 120,000 cells per well of a 24 well plate in DME+5% csFBS. […] Data are represented as IC50 obtained from four parameter logistics curve.

[7] = biological target: T1, hAR-LBD (633-919) (Homo sapiens, UniProt P10275); assay: Ligand binding assay, GST-AR-LBD with [3H]mibolerone
T1 construct: GST (N); made in house
T1 sequence (P10275 634-920): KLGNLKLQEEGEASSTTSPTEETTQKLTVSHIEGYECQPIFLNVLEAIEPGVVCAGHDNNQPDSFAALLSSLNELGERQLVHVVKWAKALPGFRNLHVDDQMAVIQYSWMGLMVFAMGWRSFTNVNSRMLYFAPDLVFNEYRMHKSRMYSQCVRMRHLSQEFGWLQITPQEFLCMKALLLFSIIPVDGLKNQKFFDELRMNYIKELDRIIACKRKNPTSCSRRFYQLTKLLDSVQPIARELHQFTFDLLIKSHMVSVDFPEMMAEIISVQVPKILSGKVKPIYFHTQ
Method: Objective: To determine SARDs binding affinity to the AR-LBD.
Non-specific binding was then subtracted from total binding to determine specific binding and non-linear regression for ligand binding curve with one site saturation to determine the Kd of mibolerone.
Following incubation, the ligand bound AR-LBD complex was isolated using Bio Gel HT® hydroxyapatite, washed and counted in a scintillation counter after adding scintillation cocktail.

[8] = biological target: T2, PR (Homo sapiens, UniProt P06401); settings: positive control
T2 sequence (P06401 1-933): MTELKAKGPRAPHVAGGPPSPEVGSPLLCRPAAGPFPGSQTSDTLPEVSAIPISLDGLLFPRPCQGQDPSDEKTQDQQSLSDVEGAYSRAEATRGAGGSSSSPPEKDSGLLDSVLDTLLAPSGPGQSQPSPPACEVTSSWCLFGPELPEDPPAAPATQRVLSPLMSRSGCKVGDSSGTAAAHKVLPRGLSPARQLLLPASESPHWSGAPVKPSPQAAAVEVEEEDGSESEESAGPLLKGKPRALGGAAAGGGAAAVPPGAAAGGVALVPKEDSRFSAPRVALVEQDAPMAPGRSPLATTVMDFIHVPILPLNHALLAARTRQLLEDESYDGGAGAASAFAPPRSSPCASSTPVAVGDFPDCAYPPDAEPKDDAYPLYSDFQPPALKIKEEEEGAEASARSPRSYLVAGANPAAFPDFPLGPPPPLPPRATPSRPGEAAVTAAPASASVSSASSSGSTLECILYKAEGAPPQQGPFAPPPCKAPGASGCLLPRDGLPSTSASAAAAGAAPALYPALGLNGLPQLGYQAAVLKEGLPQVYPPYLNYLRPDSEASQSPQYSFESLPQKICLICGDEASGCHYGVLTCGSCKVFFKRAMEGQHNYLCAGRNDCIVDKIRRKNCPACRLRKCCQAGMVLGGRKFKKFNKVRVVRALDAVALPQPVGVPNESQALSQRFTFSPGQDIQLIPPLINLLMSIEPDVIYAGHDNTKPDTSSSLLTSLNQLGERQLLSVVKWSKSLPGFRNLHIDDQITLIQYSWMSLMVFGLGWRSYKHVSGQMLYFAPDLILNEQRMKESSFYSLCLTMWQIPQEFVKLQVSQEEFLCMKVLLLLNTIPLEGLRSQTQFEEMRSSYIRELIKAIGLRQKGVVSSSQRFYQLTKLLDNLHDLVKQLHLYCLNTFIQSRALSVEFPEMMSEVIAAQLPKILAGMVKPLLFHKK

[9] = Table 2, rats, 20 mg/kg daily for 13 days
[10] = 20 mg/kg Hershberger experiment

C[C@](O)(Cn1cc(F)cn1)C(=O)Nc1ccc(C#N)c(C(F)(F)F)c1.O=C(O)C(O)C(O)C(=O)O [1002 tartarate]
Serum conc. [1, 9]: 12.4 nM

C[C@](O)(Cn1ccc2cc(F)ccc21)C(=O)Nc1ccc(C#N)c(C(F)(F)F)c1 [Compound 11]
HLM Metabolism (H.L. min) [2]: 6 min

C[C@](O)(Cn1cc(F)cn1)C(=O)Nc1ccc(C#N)c(C(F)(F)F)c1 [Compound 1002]
Serum conc. [1, 9]: 9.3 nM

C[C@](O)(Cn1cc(C(F)(F)F)cn1)C(=O)Nc1ccc(C#N)c(C(F)(F)F)c1 [Compound 1017]
RLM Metabolism (H.L. min) [3]: 400 min
HLM Metabolism (H.L. min) [2]: 400 min

C[C@](O)(Cn1cc(F)cn1)C(=O)Nc1cnc(C#N)c(C(F)(F)F)c1 [Compound 1022]
Serum conc. [1, 9]: 64 nM
Serum conc. ([1]; Table 4, rats, 20 mg/kg): 33 nM
RLM Metabolism (H.L. min) [3]: 78 min
HLM Metabolism (H.L. min) [2]: 82 min

C[C@](O)(Cn1cc(C#N)cn1)C(=O)Nc1ccc(C#N)c(C(F)(F)F)c1 [Compound 1048]
RLM Metabolism (H.L. min) [3]: 86 min
HLM Metabolism (H.L. min) [2]: 400 min

C[C@](O)(Cn1cc(Br)c(F)n1)C(=O)Nc1ccc(C#N)c(C(F)(F)F)c1 [Compound 1058, (S)-3-(4-Bromo-3-fluoro-1H-pyrazol-1-yl)-N-(4-cyano-3-(trifluoromethyl)phenyl)-2-hydroxy-2-methylpropanamide]
RLM Metabolism (H.L. min) [3]: 400 min
HLM Metabolism (H.L. min) [2]: 138 min

C[C@](O)(Cn1cc(C#N)cn1)C(=O)Nc1cnc(C#N)c(C(F)(F)F)c1 [Compound 1065]
(Prostate) % diff [4, 10]: .58%
(S.V.) % diff [4, 10]: .88%
Seminal vesicles weight reduction / in vivo AR antagonism, in words ([4]; 20 mg/kg, compared to 1002 or castration): full AR antagonism in vivo; also recorded: reached castration levels; also recorded: significantly improved efficacy
Prostate weight reduction, improved efficacy compared to 1002 ([4]; FIGS. 7C and 7D): approximately 45%
Serum conc. ([1]; Table 4, rats, 20 mg/kg): 561 nM
Conc of 1065 ([1]; 1 mg/kg, 1 mg/kg): 81.58 and 87.25 and 120.1244 and 134.5505 and 129.9323
Conc of 1065 ([1]; 5 mg/kg, 5 mg/kg): 630.4879 and 691.1901 and 485.4264 and 967.3936 and 798.7984
Conc of 1065 ([1]; 10 mg/kg, 10 mg/kg): 637.641 and 915.1312 and 824.8076 and 681.9936 and 795.917
Conc of 1065 ([1]; 20 mg/kg, 20 mg/kg): 1286.902 and 1298.179 and 1360.687 and 1397.834 and 1193.986
RLM Metabolism (H.L. min) [3]: 84 min
HLM Metabolism, % metabolized after 60 min ([2]; after 60 min): 10%
HLM Metabolism (H.L. min) [2]: STABLE

C[C@](O)(Cn1cc(Cl)c(Br)n1)C(=O)Nc1ccc(C#N)c(C(F)(F)F)c1 [Compound 1066]
RLM Metabolism (H.L. min) [3]: 300 min
HLM Metabolism (H.L. min) [2]: 319 min

C[C@@H](Cn1cc(F)cn1)NC(=O)c1ccc(C#N)c(C(F)(F)F)c1 [Compound 1068, (S)-4-Cyano-N-(1-(4-fluoro-1H-pyrazol-1-yl)propan-2-yl)-3-(trifluoromethyl)benzamide]
SARD Activity Full Length % inhibition at 1 μM ([5]; first of two values in the cell, 1 μM): 62%
SARD Activity Full Length % inhibition at 10 μM ([5]; second of two values in the cell, 10 μM): 96%
IC50 [6]: 417 nM
wtAR Binding Ki (nM) (DHT = 1 nM) [7]: no binding

CNC(=O)c1ccc(N2C(=S)N(c3ccc(C#N)c(C(F)(F)F)c3)C(=O)C2(C)C)cc1F [Enzalutamide, reference compound]
Seminal vesicles weight reduction compared to 1002, in words ([4]; enzalutamide 30 mg/kg): marginally improved

CC(=O)[C@H]1CC[C@H]2[C@@H]3CCC4=CC(=O)CC[C@]4(C)[C@H]3CC[C@]12C [progesterone]
PR agonism, in words [8]: potent and full efficacy agonist activity
